According to ChEMBL document CHEMBL5724914, “Linking interpersonal differences in gut microbiota composition and drug biotransformation activity” (2024):

Assays:
[1] = human gut metagenome, 24 h, 2 µM
[2] = (§1) The drug is tested on WLS-038 corresponding to human gut metagenome with ENA study accession number: PRJEB37062 and ENA sample accession number: ERS12561745 for biotransformation under anaerobic condition. The drug concentrations were measured over 9 timepoints collected between 0 and 24 hours of incubation by liquid-chromatography-coupled mass spectrometry (LC–MS); conditions: 2 µM
[3] = human gut metagenome, 24 h, 2 µM; remark: listed apart in the source
[4] = as §1, with “Z-022” for “WLS-038”, “mouse” for “human”, “ERS12561821” for “ERS12561745”; conditions: 2 µM
[5] = as §1, with “Z-029” for “WLS-038”, “rat” for “human”, “ERS12561828” for “ERS12561745”; conditions: 2 µM
[6] = as §1, with “WLS-027” for “WLS-038”, “ERS12561744” for “ERS12561745”; conditions: 2 µM
[7] = as §1, with “Z-011” for “WLS-038”, “mouse” for “human”, “ERS12561811” for “ERS12561745”; conditions: 2 µM
[8] = human gut metagenome, 24 h, 2 µM; remark: listed apart in the source
[9] = as §1, with “WLS-090” for “WLS-038”, “ERS12561753” for “ERS12561745”; conditions: 2 µM
Further: call rule not given here.

Bacterial Biotransformation [1]	Bacterial Biotransformation [2]	Bacterial Biotransformation [3]	Bacterial Biotransformation [4]	Bacterial Biotransformation [5]	Bacterial Biotransformation [6]	Bacterial Biotransformation [7]	Bacterial Biotransformation [8]	Bacterial Biotransformation [9]	SMILES
Compound NOT metabolized	Compound NOT metabolized	Compound metabolized	Compound metabolized	Compound NOT metabolized	Compound metabolized	Compound NOT metabolized	Compound metabolized	Compound metabolized	CC(C)(C)N.CCC[C@H](N[C@@H](C)C(=O)N1[C@H](C(=O)O)C[C@@H]2CCCC[C@@H]21)C(=O)OCC [PERINDOPRIL ERBUMINE]
Compound metabolized	Compound NOT metabolized	Compound NOT metabolized	Compound NOT metabolized	Compound NOT metabolized	Compound NOT metabolized	Compound NOT metabolized	Compound metabolized	Compound metabolized	COc1cc(NC(C)CCCN)c2ncccc2c1.O=P(O)(O)O.O=P(O)(O)O (stereo not drawn) [PRIMAQUINE PHOSPHATE]
Compound NOT metabolized	Compound NOT metabolized	Compound metabolized	Compound NOT metabolized	Compound NOT metabolized	Compound NOT metabolized	Compound NOT metabolized	Compound metabolized	Compound metabolized	C=C[C@H]1CN2CC[C@H]1C[C@H]2[C@H](O)c1ccnc2ccc(OC)cc12.C=C[C@H]1CN2CC[C@H]1C[C@H]2[C@H](O)c1ccnc2ccc(OC)cc12.O.O.O=S(=O)(O)O [QUININE SULFATE]
Compound NOT metabolized	Compound NOT metabolized	Compound NOT metabolized	Compound NOT metabolized	Compound NOT metabolized	Compound NOT metabolized	Compound NOT metabolized	Compound NOT metabolized	Compound NOT metabolized	O=C(NC(Cc1cc(=O)[nH]c2ccccc12)C(=O)O)c1ccc(Cl)cc1 (stereo not drawn) [REBAMIPIDE]
Compound NOT metabolized	Compound metabolized	Compound metabolized	Compound metabolized	Compound NOT metabolized	Compound metabolized	Compound NOT metabolized	Compound metabolized	Compound metabolized	CCOc1cc(CC(=O)N[C@@H](CC(C)C)c2ccccc2N2CCCCC2)ccc1C(=O)O [REPAGLINIDE]
Compound NOT metabolized	Compound NOT metabolized	Compound NOT metabolized	Compound metabolized	Compound NOT metabolized	Compound NOT metabolized	Compound NOT metabolized	Compound NOT metabolized	Compound NOT metabolized	CC(N)C12CC3CC(CC(C3)C1)C2 (stereo not drawn) [RIMANTADINE]

SMILES	Bacterial Biotransformation [1]	Bacterial Biotransformation [2]	Bacterial Biotransformation [3]	Bacterial Biotransformation [4]	Bacterial Biotransformation [5]	Bacterial Biotransformation [6]	Bacterial Biotransformation [7]	Bacterial Biotransformation [8]	Bacterial Biotransformation [9]
CCN(C)C(=O)Oc1cccc([C@H](C)N(C)C)c1.O=C(O)C(O)C(O)C(=O)O [RIVASTIGMINE TARTRATE]	Compound metabolized	Compound metabolized	Compound NOT metabolized	Compound NOT metabolized	Compound NOT metabolized	Compound NOT metabolized	Compound NOT metabolized	Compound NOT metabolized	Compound NOT metabolized
